The record followed here is patent US11807644B2 (PMV Pharmaceuticals, Inc., priority 2020, dated 2023).

One experiment deals with T1, recombinant His-tag Y220C p53 DBD protein (Homo sapiens, UniProt P04637, Y220C).
T1 construct: recombinant His-tag Y220C p53 DBD protein (amino acids #˜94-312)
Briefly: In vitro DNA binding activity assay (TR-FRET): binding of His-tag Y220C p53 DBD to biotin-labeled consensus DNA. Type of experiment: biochemical. Particulars: SC150 = concentration to increase DNA binding by […], His-tag Y220C p53 DBD, biotin-labeled consensus DNA. In general terms: In TR-FRET formats the signal depends on donor and acceptor labels being close together.
In the case of `O=C(NCc1nc(-c2cc3c(NC4CCOCC4)cccc3n2CC(F)(F)F)no1)C1CC1` [Compound 159B, N-[(3-{4-[(oxan-4-yl)amino]-1-(2,2,2-trifluoroethyl)-1H-indol-2-yl}-1,2,4-oxadiazol-5-yl)methyl]cyclopropanecarboxamide], the “Y220C SC150 (μM)” value is recorded as “* (* = 0 μM ≤ SC150 < 0.1 μM)”.

Regarding `CN1CC[C@@H](Nc2cccc3c2cc(-c2noc(CNC(=O)c4cnn([C@H]5CCC[C@@H]5F)c4)n2)n3CC(F)(F)F)[C@@H](F)C1` (relative stereo) [Compound 395B], the “Y220C SC150 (μM)” value is “* (* = 0 μM ≤ SC150 < 0.1 μM)”.

Consider `CN1CC[C@@H](Nc2cccc3c2cc(-c2noc(CNC(=O)c4ccn(C5(C)CC5)c4)n2)n3CC(F)(F)F)[C@@H](F)C1` [Compound 428B, N-{[3-(4-{[(3S,4R)-3-fluoro-1-methylpiperidin-4-yl]amino}-1-(2,2,2-trifluoroethyl)-1H-indol-2-yl)-1,2,4-oxadiazol-5-yl]methyl}-1-(1-methylcyclopropyl)-1H-pyrrole-3-carboxamide], for which the “Y220C SC150 (μM)” value was “* (* = 0 μM ≤ SC150 < 0.1 μM)”.

For `CN1CC[C@@H](Nc2cccc3c2cc(-c2nc(CNC(=O)c4cccs4)no2)n3CC(F)(F)F)[C@@H](F)C1` (racemic) [Compound 277B, (+/−)-N-{[5-(4-{[(3R,4S)-3-fluoro-1-methylpiperidin-4-yl]amino}-1-(2,2,2-trifluoroethyl)-1H-indol-2-yl)-1,2,4-oxadiazol-3-yl]methyl}thiophene-2-carboxamide], the “Y220C SC150 (μM)” value is “* (* = 0 μM ≤ SC150 < 0.1 μM)”.

For the compound `CN1CC[C@@H](Nc2cccc3c2cc(-c2noc(CNC(=O)c4ccn(CC5CC5)c4)n2)n3CC(F)(F)F)[C@@H](F)C1` [Compound 241B, 1-(cyclopropylmethyl)-N-{[3-(4-{[(3S,4R)-3-fluoro-1-methylpiperidin-4-yl]amino}-1-(2,2,2-trifluoroethyl)-1H-indol-2-yl)-1,2,4-oxadiazol-5-yl]methyl}-1H-pyrrole-3-carboxamide], the “Y220C SC150 (μM)” value is “* (* = 0 μM ≤ SC150 < 0.1 μM)”.

In the case of `CN1CC[C@@H](Nc2cccc3c2cc(-c2noc(CNS(=O)(=O)c4ccccc4)n2)n3CC(F)(F)F)[C@@H](F)C1` [Compound 221B, N-{[3-(4-{[(3S,4R)-3-fluoro-1-methylpiperidin-4-yl]amino}-1-(2,2,2-trifluoroethyl)-1H-indol-2-yl)-1,2,4-oxadiazol-5-yl]methyl}benzenesulfonamide], the “Y220C SC150 (μM)” value is listed as “** (** = 0.1 μM ≤ SC150 < 0.5 μM)”.

On to `Cn1ccc(C(=O)NCc2nc(-c3cc4c(N[C@@H]5CCN(C(C)(C)C)C[C@H]5F)cccc4n3CC(F)(F)F)no2)c1` (racemic) [Compound 399B, N-{[3-(4-{[(3R,4R)-1-tert-butyl-3-fluoropiperidin-4-yl]amino}-1-(2,2,2-trifluoroethyl)-1H-indol-2-yl)-1,2,4-oxadiazol-5-yl]methyl}-1-methyl-1H-pyrrole-3-carboxamide], for which the “Y220C SC150 (μM)” value is “* (* = 0 μM ≤ SC150 < 0.1 μM)”.

On to `CN1CC[C@@H](Nc2cccc3c2cc(-c2noc(CNC(=O)c4ccncc4)n2)n3CC(F)(F)F)[C@@H](F)C1` [Compound 200B, N-{[3-(4-{[(3S,4R)-3-fluoro-1-methylpiperidin-4-yl]amino}-1-(2,2,2-trifluoroethyl)-1H-indol-2-yl)-1,2,4-oxadiazol-5-yl]methyl}pyridine-4-carboxamide], for which the “Y220C SC150 (μM)” value is given as “* (* = 0 μM ≤ SC150 < 0.1 μM)”.

With `CC(=O)NCc1nnc(-c2cc3c(NC4CCN(C)CC4)cccc3n2CC(F)(F)F)s1` [Compound 58B, N-[(5-{4-[(1-methylpiperidin-4-yl)amino]-1-(2,2,2-trifluoroethyl)-1H-indol-2-yl}-1,3,4-thiadiazol-2-yl)methyl]acetamide], the “Y220C SC150 (μM)” value is recorded as “** (** = 0.1 μM ≤ SC150 < 0.5 μM)”.

Take `CN1CC[C@H](Nc2cccc3c2cc(-c2nnc(CNC(=O)c4ccccc4)o2)n3CC(F)(F)F)[C@H](F)C1` (racemic) [Compound 118B, (+/−)-N-{[5-(4-{[(3R,4S)-3-fluoro-1-methylpiperidin-4-yl]amino}-1-(2,2,2-trifluoroethyl)-1H-indol-2-yl)-1,3,4-oxadiazol-2-yl]methyl}benzamide]: the “Y220C SC150 (μM)” value was “** (** = 0.1 μM ≤ SC150 < 0.5 μM)”.

`CN1CCC(C(=O)NCc2nnc(-c3cc4c(N[C@@H]5CCN(C)C[C@@H]5F)cccc4n3CC(F)(F)F)s2)CC1` (racemic) [Compound 40B, (+/−)-N-{[5-(4-{[(3R,4S)-3-fluoro-1-methylpiperidin-4-yl]amino}-1-(2,2,2-trifluoroethyl)-1H-indol-2-yl)-1,3,4-thiadiazol-2-yl]methyl}-1-methylpiperidine-4-carboxamide]: the “Y220C SC150 (μM)” value was “*** (*** = 0.5 μM ≤ SC150 < 1 μM)”.

As to `CN1CC[C@H](Nc2cccc3c2cc(-c2nnc(CNC(=O)C4CC4)s2)n3CC(F)(F)F)[C@H](F)C1` [Compound 48B, N-{[5-(4-{[(3R,4S)-3-fluoro-1-methylpiperidin-4-yl]amino}-1-(2,2,2-trifluoroethyl)-1H-indol-2-yl)-1,3,4-thiadiazol-2-yl]methyl}cyclopropanecarboxamide], the “Y220C SC150 (μM)” value was “* (* = 0 μM ≤ SC150 < 0.1 μM)”.

As to `CN1CC[C@@H](Nc2cccc3c2cc(-c2noc(CNC(=O)[C@@H]4C[C@H]4CN4CCCC4)n2)n3CC(F)(F)F)[C@@H](F)C1` [Compound 265B, (1R,2R)-N-{[3-(4-{[(3S,4R)-3-fluoro-1-methylpiperidin-4-yl]amino}-1-(2,2,2-trifluoroethyl)-1H-indol-2-yl)-1,2,4-oxadiazol-5-yl]methyl}-2-[(pyrrolidin-1-yl)methyl]cyclopropane-1-carboxamide], the “Y220C SC150 (μM)” value is given as “* (* = 0 μM ≤ SC150 < 0.1 μM)”.

On to `CN1CC[C@@H](Nc2cccc3c2cc(-c2noc(CNC(=O)[C@H]4C[C@@H]4C#N)n2)n3CC(F)(F)F)[C@@H](F)C1` (racemic) [Compound 193B, (1RS,2RS)-2-cyano-N-{[3-(4-{[(3S,4R)-3-fluoro-1-methylpiperidin-4-yl]amino}-1-(2,2,2-trifluoroethyl)-1H-indol-2-yl)-1,2,4-oxadiazol-5-yl]methyl}cyclopropane-1-carboxamide], for which the “Y220C SC150 (μM)” value is “* (* = 0 μM ≤ SC150 < 0.1 μM)”.

For `CC(CF)n1cc(C(=O)NCc2nc(-c3cc4c(N[C@@H]5CCN(C)C[C@@H]5F)cccc4n3CC(F)(F)F)no2)cn1` (stereo partly drawn) [Compound 303B, N-{[3-(4-{[(3S,4R)-3-fluoro-1-methylpiperidin-4-yl]amino}-1-(2,2,2-trifluoroethyl)-1H-indol-2-yl)-1,2,4-oxadiazol-5-yl]methyl}-1-(1-fluoropropan-2-yl)-1H-pyrazole-4-carboxamide], the “Y220C SC150 (μM)” value was “* (* = 0 μM ≤ SC150 < 0.1 μM)”.

For `CN1CC[C@@H](Nc2cccc3c2cc(-c2noc(CNC(=O)c4ccc(C(C)(C)C#N)s4)n2)n3CC(F)(F)F)[C@@H](F)C1` [Compound 442B, 5-(1-cyano-1-methylethyl)-N-{[3-(4-{[(3S,4R)-3-fluoro-1-methylpiperidin-4-yl]amino}-1-(2,2,2-trifluoroethyl)-1H-indol-2-yl)-1,2,4-oxadiazol-5-yl]methyl}thiophene-2-carboxamide], the “Y220C SC150 (μM)” value is listed as “* (* = 0 μM ≤ SC150 < 0.1 μM)”.

In the case of `COC(C)(C)c1ccc(C(=O)NCc2nc(-c3cc4c(N[C@@H]5CCNC[C@@H]5F)cccc4n3CC(F)(F)F)no2)s1` [Compound 480B], the “Y220C SC150 (μM)” value is given as “* (* = 0 μM ≤ SC150 < 0.1 μM)”.

As to `CN1CC[C@@H](Nc2cccc3c2cc(-c2noc(CNC(=O)c4cnn(C5CCCC5)c4)n2)n3CC(F)(F)F)[C@@H](F)C1` [Compound 312B, 1-cyclopentyl-N-{[3-(4-{[(3S,4R)-3-fluoro-1-methylpiperidin-4-yl]amino}-1-(2,2,2-trifluoroethyl)-1H-indol-2-yl)-1,2,4-oxadiazol-5-yl]methyl}-1H-pyrazole-4-carboxamide], the “Y220C SC150 (μM)” value is given as “* (* = 0 μM ≤ SC150 < 0.1 μM)”.

`CN1CC[C@@H](Nc2cccc3c2cc(-c2noc(CNC(=O)c4cnn(C)c4)n2)n3CC(F)(F)F)[C@@H](F)C1` [Compound 294B, N-{[3-(4-{[(3S,4R)-3-fluoro-1-methylpiperidin-4-yl]amino}-1-(2,2,2-trifluoroethyl)-1H-indol-2-yl)-1,2,4-oxadiazol-5-yl]methyl}-1-methyl-1H-pyrazole-4-carboxamide]: the “Y220C SC150 (μM)” value was “* (* = 0 μM ≤ SC150 < 0.1 μM)”.

As for `C[C@@H]1C[C@H]1C(=O)NCc1nnc(-c2cc3c(NC4CCN(C)CC4)cccc3n2CC(F)(F)F)s1` (racemic) [Compound 34B, (+/−)-(1R,2R)-2-methyl-N-[(5-{4-[(1-methylpiperidin-4-yl)amino]-1-(2,2,2-trifluoroethyl)-1H-indol-2-yl}-1,3,4-thiadiazol-2-yl)methyl]cyclopropane-1-carboxamide], the “Y220C SC150 (μM)” value is on record as “* (* = 0 μM ≤ SC150 < 0.1 μM)”.

The same experiment, now with this note: concentration to increase DNA binding by […], incubated at either 27° C. or 29° C. for 60 min.
In the case of `CS(=O)(=O)c1ccc(NC(=O)NCc2ccc(-c3cc4c(NC5CCS(=O)(=O)CC5)cccc4n3CC(F)(F)F)cc2)cc1` [Compound 28A, 1-[(4-{4-[(1,1-dioxo-1λ^6-thian-4-yl)amino]-1-(2,2,2-trifluoroethyl)-1H-indol-2-yl}phenyl)methyl]-3-(4-methanesulfonylphenyl)urea], the “SC150 (μM)” value is reported as “+ (+ = 0 μM ≤ SC150 < 2 μM)”.

For the compound `NCc1ccc(-c2cc3c(NC4CCS(=O)(=O)CC4)cccc3n2CC(F)(F)F)cc1` [Compound 2A, 4-({2-[4-(aminomethyl)phenyl]-1-(2,2,2-trifluoroethyl)-1H-indol-4-yl}amino)-1λ^6-thiane-1,1-dione], the “SC150 (μM)” value is listed as “+++ (+++ = 5 μM ≤ SC150 < 10 μM)”.

As to `CNCc1ccc(-c2cc3c(NC4CCS(=O)(=O)CC4)cccc3n2CC(F)(F)F)cc1` [Compound 3A, 4-[(2-{4-[(methylamino)methyl]phenyl}-1-(2,2,2-trifluoroethyl)-1H-indol-4-yl)amino]-1λ^6-thiane-1,1-dione], the “SC150 (μM)” value was “+++ (+++ = 5 μM ≤ SC150 < 10 μM)”.
